Test results taken from ChEMBL document CHEMBL2412997, “Determination of the binding mode and interacting amino-acids for dibasic H3 receptor antagonists” (Bioorg Med Chem, 2013).

Key:
Histamine H3 receptor [1] = molecular target: T1, Histamine H3 receptor (Homo sapiens, UniProt Q9Y5N1); experiment: Binding affinity to histamine H3 receptor (unknown origin)
Histamine H3 receptor [2] = molecular target: T1, Histamine H3 receptor; experiment: Displacement of [125I]iodoproxyfan from histamine H3 receptor (unknown origin) expressed in CHO cells; assay type: cell-based

T1 sequence (Q9Y5N1 whole entry): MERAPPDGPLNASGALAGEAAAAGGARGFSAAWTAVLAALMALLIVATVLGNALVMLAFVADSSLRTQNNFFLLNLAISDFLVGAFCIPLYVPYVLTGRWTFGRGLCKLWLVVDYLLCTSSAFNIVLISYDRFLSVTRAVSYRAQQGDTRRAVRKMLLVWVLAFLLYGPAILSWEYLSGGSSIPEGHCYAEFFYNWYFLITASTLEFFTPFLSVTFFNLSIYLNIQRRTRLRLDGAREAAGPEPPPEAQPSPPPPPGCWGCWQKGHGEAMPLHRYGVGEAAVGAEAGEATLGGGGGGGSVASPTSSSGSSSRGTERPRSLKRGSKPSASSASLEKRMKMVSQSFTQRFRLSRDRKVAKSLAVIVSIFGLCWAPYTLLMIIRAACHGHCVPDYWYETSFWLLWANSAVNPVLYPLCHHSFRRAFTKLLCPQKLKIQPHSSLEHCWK

Structure (SMILES)	Ki (Histamine H3 receptor [1]) [nM]	Ki (Histamine H3 receptor [2]) [nM]
CCN1CCCc2c(OCCCN3CCCCC3)cccc21	1000	–
CCN1CCCc2cccc(OCCCN3CCCCC3)c21	1000	–
c1cc(OCCCN2CCCCC2)ccc1Cc1ccc(OCCCN2CCCCC2)cc1	–	0.51
c1cc(OCCCN2CCCCC2)ccc1CCc1ccc(OCCCN2CCCCC2)cc1	–	1.21
O=C(/C=C/c1ccc(OCCCN2CCCCC2)cc1)c1ccc(OCCCN2CCCCC2)cc1	–	0.53
c1cc(-c2ccc(OCCCN3CCCCC3)cc2)ccc1OCCCCN1CCCCC1	–	0.13
c1cc(-c2ccc(OCCN3CCCCC3)cc2)ccc1OCCCN1CCCCC1	–	0.49
FC1(F)CCN(CCCOc2ccc(-c3ccc(OCCCN4CCCCC4)cc3)cc2)CC1	–	9.31
c1cc(-c2ccc(OCCCN3CCCCC3)cc2)ccc1CN1CCCCC1	–	1.64
C(=C\c1ccc(-c2ccc(OCCCN3CCCCC3)cc2)cc1)/CN1CCCCC1	–	0.655
CN1CCN(c2ccc(-c3ccc(OCCCN4CCCCC4)cc3)cc2)CC1	–	0.23
C(#Cc1ccc(-c2ccc(OCCCN3CCCCC3)cc2)cc1)CN1CCCCC1	–	0.67
C(=C/c1ccc(-c2ccc(OCCCN3CCCCC3)cc2)cc1)/CN1CCCCC1	–	0.057
c1cc(-c2ccc(OCCCN3CCCCC3)cc2)ccc1CCCN1CCCCC1	–	0.17
c1ccc(-c2ccc(OCCCN3CCCCC3)cc2)c(CN2CCCCC2)c1	–	0.045
c1cc(CN2CCCCC2)cc(-c2ccc(OCCCN3CCCCC3)cc2)c1	–	0.549
O=C(CCc1ccc(OCCCN2CCCCC2)cc1)c1ccc(OCCCN2CCCCC2)cc1	–	0.64
c1cc(OCCCN2CCCCC2)ccc1CCCc1ccc(OCCCN2CCCCC2)cc1	–	0.9
N#CC(C#N)=C1N(CCCCN2CCCCC2)CCN1CCCCN1CCCCC1	56	–
c1cc(-c2ccc(CCN3CCCCC3)cc2)ccc1CCN1CCCCC1	1.2	–
c1cc(-c2ccc(CN3CCCCC3)cc2)ccc1CN1CCCCC1	0.3	–
N#CC(C#N)=C1N(CCCCN2CCCCC2)CCN1CCCN1CCCCC1	61	–
